From patent EP2226073A1, “Topical pharmaceutical composition comprising an antiseptic and arginine for wound healing” (EURO-CELTIQUE S.A., priority 2009, dated 2010)

Test system: Human ciliated epithelium cells
Protocol: Human ciliated epithelium cells were analyzed by an in vitro method which allows for determining ciliary activity or ciliary vibration. The corresponding cells were exposed and incubated with 100 µl test substance at a temperature of 37°C. After an incubation period of 5 min ciliary vibration was measured.
By using this in vitro method, a nutrient solution (Dulbeco) as a standard, a 0.2% chlorohexidine solution (a common antiseptic agent), conventional polyvidone iodine solutions (Betaisodona) of different concentrations (5.0%, 2.5%, and 1.25% PVP-iodine), and a liposomal solution containing 4.5% PVP-iodine were tested.

SMILES: [H]/N=C(\N/C(=N/[H])NCCCCCCNC(=N)NC(=N)Nc1ccc(Cl)cc1)Nc1ccc(Cl)cc1 [chlorohexidine]
- ciliary vibration: decrease of the measured ciliary vibration
